Laboratory results reported in ChEMBL document CHEMBL5252561, “Evaluation of darunavir-derived HIV-1 protease inhibitors incorporating P2' amide-derivatives: Synthesis, biological evaluation and structural studies” (Bioorg Med Chem Lett, 2023).

Experiments:
[1] = molecular target: Human immunodeficiency virus type 1 protease (Human immunodeficiency virus 1, UniProt Q72874); test: Inhibition of HIV-1 protease using Abz-NF-6 as substrate assessed as inhibition constant measured every 2 mins for 20 mins by fluorescence based […] analysis
[2] = tested on: Human immunodeficiency virus; test: Antiviral activity against HIV LAI infected in human MT-2 cells assessed as inhibition of viral growth; format: functional, organism-based; settings: Human immunodeficiency virus 1, LAI, MT2
[3] = tested on: Human immunodeficiency virus; test: Potency index, ratio of test compound IC50 to darunavir IC50 for antiviral activity against HIV LAI infected in human MT-2 cells assessed as inhibition of viral growth; format: functional, MT2

| Structure (SMILES) | Ki [1] | IC50 [2] | Ratio IC50 [3] |
| --- | --- | --- | --- |
| CC(=O)Nc1ccc(S(=O)(=O)N(CC(C)C)C[C@@H](O)[C@H](Cc2ccccc2)NC(=O)O[C@H]2CO[C@H]3OCC[C@H]32)cc1 | 0.0006 nM | 29 nM | 10 |
| CC(C)CN(C[C@@H](O)[C@H](Cc1ccccc1)NC(=O)O[C@H]1CO[C@H]2OCC[C@H]21)S(=O)(=O)c1ccc(NC(=O)CN[C@H](C)c2ccccc2)cc1 | 0.0053 nM | 39 nM |  |
| CC(C)CN(C[C@@H](O)[C@H](Cc1ccccc1)NC(=O)O[C@H]1CO[C@H]2OCC[C@H]21)S(=O)(=O)c1ccc(C(=O)O)cc1 |  | > 1000 nM |  |
| CCNCC(=O)Nc1ccc(S(=O)(=O)N(CC(C)C)C[C@@H](O)[C@H](Cc2ccccc2)NC(=O)O[C@H]2CO[C@H]3OCC[C@H]32)cc1 | 0.0091 nM | 280 nM |  |
| CC(C)CN(C[C@@H](O)[C@H](Cc1ccccc1)NC(=O)O[C@H]1CO[C@H]2OCC[C@H]21)S(=O)(=O)c1ccc(NC(=O)[C@H](NC(=O)OC(C)(C)C)C(C)C)cc1 | 337 nM | 430 nM |  |
| CC(C)CN(C[C@@H](O)[C@H](Cc1ccccc1)NC(=O)O[C@H]1CO[C@H]2OCC[C@H]21)S(=O)(=O)c1ccc(C(N)=O)cc1 |  | 93 nM |  |
| CC(C)CN(C[C@@H](O)[C@H](Cc1ccccc1)NC(=O)O[C@H]1CO[C@H]2OCC[C@H]21)S(=O)(=O)c1ccc(NC(=O)[C@@H](NC(=O)OC(C)(C)C)C(C)C)cc1 | 178 nM | 540 nM |  |
| CC(C)CN(C[C@@H](O)[C@H](Cc1ccccc1)NC(=O)O[C@H]1CO[C@H]2OCC[C@H]21)S(=O)(=O)c1ccc(N)cc1 |  | 1.6 nM |  |

Further lines, with some results ahead:

| Ki [1] | Structure (SMILES) | IC50 [2] | Ratio IC50 [3] |
| --- | --- | --- | --- |
| 0.388 nM | CC(C)CN(C[C@@H](O)[C@H](Cc1ccccc1)NC(=O)O[C@H]1CO[C@H]2OCC[C@H]21)S(=O)(=O)c1ccc(NC(=O)CNC(C)C)cc1 | 31 nM |  |
| 0.0044 nM | CC(C)CN(C[C@@H](O)[C@H](Cc1ccccc1)NC(=O)O[C@H]1CO[C@H]2OCC[C@H]21)S(=O)(=O)c1ccc(NC(=O)CCl)cc1 | 32 nM |  |
| 0.445 nM | CC(C)CN(C[C@@H](O)[C@H](Cc1ccccc1)NC(=O)O[C@H]1CO[C@H]2OCC[C@H]21)S(=O)(=O)c1ccc(NC(=O)[C@@H](N)C(C)C)cc1 | 25 nM |  |
| 310 nM | CC(C)CN(C[C@@H](O)[C@H](Cc1ccccc1)NC(=O)O[C@H]1CO[C@H]2OCC[C@H]21)S(=O)(=O)c1ccc(NC(=O)CNC(=O)OC(C)(C)C)cc1 |  |  |
| 0.0015 nM | CC(C)CN(C[C@@H](O)[C@H](Cc1ccccc1)NC(=O)O[C@H]1CO[C@H]2OCC[C@H]21)S(=O)(=O)c1ccc(NC(=O)CN(C)C)cc1 | > 1000 nM |  |
| 0.0921 nM | CC(C)CN(C[C@@H](O)[C@H](Cc1ccccc1)NC(=O)O[C@H]1CO[C@H]2OCC[C@H]21)S(=O)(=O)c1ccc(NC(=O)CN)cc1 |  |  |
| 0.302 nM | CCN(CC)CC(=O)Nc1ccc(S(=O)(=O)N(CC(C)C)C[C@@H](O)[C@H](Cc2ccccc2)NC(=O)O[C@H]2CO[C@H]3OCC[C@H]32)cc1 | > 1000 nM |  |
